From patent US20230095558A1, “IMMUNE CHECKPOINT TIM3-TARGETING BINDING PEPTIDE AND APPLICATION THEREOF” (Sparx Biotech (Jiangsu) Co., Ltd., priority 2020, published 2023)
No end group written: not given here.

Experiments:
[1] = tested on: CD4+ T cells; test: Mixed lymphocyte reaction (DCs + CD4+ T cells), cytokine ELISA; format: cell-based, human; conditions: MLR; for expression level of INF-γ: ELISA on day 5, vs control groups (P<0.01 or P<0.05)
Procedure: Identification of the functional activity of TIM3-targeting binding peptides was performed by evaluating the levels of activation and proliferation of T cells, i.e., the levels of expression of IL-2 and IFN-γ cytokines. First, Dendritic Cells (DCs) and CD4+T cells were obtained by magnetic bead sorting, and then the levels of IFN-γ cytokines and IL-2 were detected by a Mixed Lymphocyte Reaction (MLR) experiment simulating close to human physiological environment and an ELISA experiment, to identify biological activities of the TIM3-targeting binding peptides.
Culture of Dendritic cells (DCs): Isolated dendritic cells (DCs) were cultured in Mo-DC differentiation medium (10^7 cells/10 mL medium), and 10 mL of the same medium was added to the cells after 3 days (the cells were cultured in the differentiation medium at 37° C., 5% CO2 and >95% humidity for 6 days). On day 7, DCs were resuspended in Mo-DC mature medium and cultured for further 3 days by addition of the Mo-DC differentiation medium. Matured DC and newly isolated T cells (DC and T cells from different donors) were mixed for mixed lymphocyte reaction. Approximately 1×10^4 DCs and 1×10^5 T cells per well were mixed and cultured in 200 μL RPMI-1640 medium with 10% FBS. To evaluate the activity (gradient action), competitive inhibition (P26 and ligand), synergistic effect (TIM3-targeting binding peptides and the PD-1 inhibitor Opdivo) of the binding peptides TIM3-targeting binding peptides, the corresponding concentrations of peptides, Opdivo, Galectin-9 were added to the corresponding wells to interact with the cells. The expression levels of IFN-γ (or IL-2) secreted in the cell supernatant were measured on day 5.
T cell activity were tested according to the instructions of the ELISA kit. Briefly, the capture antibody dilutions were coated on a 96-well plate overnight (24 hours) at room temperature at a concentration of 2 μg/mL in a volume of 100 μL. On the following day, the capture antibody solution was aspirated and the wells were washed three times with 300 μL wash buffer PBST (0.05% Tween®20, pH 7.2-7.4). Thereafter, the test wells were blocked with 300 μL of 1% BSA-PBS for 1 hour. After blocking, the test wells were washed in the same manner as above and 100 μL of the test samples or standards (in 1% BSA-PBS) were pipetted into each well for 2 hours. Thereafter, the detection antibody (125 ng/mL, 100 μL) was added to each well according to the instructions of the human IFN-γ/IL-2 Duo Set ELISA kit, and incubated for 2 hours. Then, HRP (100 μL, incubated for 20 minutes) and TMB (100 μL) were added. At the end of each step, each well was washed in the same manner as described above. After completion of the color development, the test wells were terminated with 12.5% H2SO4 (50 μL/well) and read on an ELISA plate reader at a wavelength of 450/570 nm. All experimental test wells were repeated.

[2] = molecular target: T1, TIM3 protein (Homo sapiens, UniProt Q8TDQ0); test: SPR affinity of TIM3-targeting binding peptides to immobilized TIM3 protein; conditions: TIM3 sensor chip, dissociation rate
T1 sequence (Q8TDQ0 22-301): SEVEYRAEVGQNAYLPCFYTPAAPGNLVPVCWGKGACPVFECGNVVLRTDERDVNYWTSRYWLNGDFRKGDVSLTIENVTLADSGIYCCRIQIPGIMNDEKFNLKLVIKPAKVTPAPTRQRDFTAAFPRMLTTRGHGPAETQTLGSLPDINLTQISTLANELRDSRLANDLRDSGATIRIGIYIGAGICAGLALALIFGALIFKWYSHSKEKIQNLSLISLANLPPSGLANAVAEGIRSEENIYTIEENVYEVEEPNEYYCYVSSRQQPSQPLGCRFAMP
Procedure: The binding properties of the TIM3-targeting binding peptides to TIM3 and their competition experiments with Galectin-9-bound TIM3 were identified by flow cytometry and surface plasmon resonance (SPROpenSPR, Nicoya, V3.01) detection.
SPR assay: Affinity identification between the TIM3-targeting binding peptides and TIM3 was performed by immobilizing TIM3 protein (50 μg/mL) on the surface of a nanogold sensor chip upon activation of EDC/NHS. The TIM3-targeting binding peptides were diluted with buffer (PBS, pH 7.4) to concentrations of […], 19.5 μM, 39 μM and 78 μM, respectively. The competitive binding ability of the TIM3-targeting binding peptides to the ligand was identified by immobilizing the Galectin-9 protein (25 μg/mL) on a sensor chip at a detection concentration of 100 μg/mL for the TIM3-targeting binding peptides, and at a concentration of the mixed sample of 100 μg/mL TIM3-targeting binding peptides and 10 μg/mL TIM3 protein. The detection sample was loaded at a flow rate of 20 μL/min for about 7 min according to the instrument instructions. The KD, ka and kd values were calculated and analyzed by Trace Drawer Evaluation (version 2.0) software.

[3] = tested on: MC38-hPDL1 tumor; test: In vivo anti-tumor growth in MC38-hPDL1 tumor-bearing mice humanized with TIM3; design: species or system C57BL/6J mice transduced with the human TIM3 gene; conditions: 21 days, intraperitoneal, P26 5 mg/kg QD, ATE 10 mg/kg twice a week
From the text: In this example, the anti-tumor growth effect of the TIM3-targeting binding peptides was farther examined in mice. The tumor inhibitory effect of the TIM3-targeting binding peptides on C57BL/6J MC38-hPDL1 tumor-bearing mice humanized with TIM3 was detected by the following experimental steps: 1. Inoculation of mice: […]-hPDL1 tumor cells (1×10^6 cells/mouse) were inoculated subcutaneously into C57BL/6J mice transduced with the human TIM3 gene. 2. Grouping: Mice were randomly divided into 4 groups with 7 mice per group when tumors reached 80 100 mm^3. 3. Administration: PBS (negative control), PD-L1 humanized antibody (positive control), polypeptides alone (experimental group) and polypeptides plus PD-L1 humanized antibody (synergistic effect group) were administered intraperitoneally to mice in each group, respectively. The amount of antibody used was 10 mg/kg twice a week. The amount of polypeptide was 5 mg/kg once daily. Tumor size and body weight of the mice were measured every 3 days. 4. Post-administration treatment: mice were euthanized 3 weeks after administration. Tumors were isolated, weighed, and photographed.

koff [2] | Sequence | expression level of INF-γ [1] | reversal of Galectin-9-mediated inhibition of CD4+ T cell activation (IFN-γ and IL-2 expression levels) ([1]; P26 100 μg/mL, Galectin-9 5 μg/mL, ELISA) | tumor volumes ([3]; compared to control group) | growth of the tumor (tumor weight) ([3]; vs control group P<0.05)
1.32×10^−2 S^−1 | SQEVFAWTFSPRWTTAPKAL [K3] | significantly increased |  |  | 
2.30×10^−2 S^−1 | SPFYYSGHQWVPHPRQAASY [K10] | significantly increased |  |  | 
1.60×10^−2 S^−1 | WQQNNPHLWDVFLGVPRTTE [K5] | significantly increased |  |  | 
7.47×10^−3 S^−1 | ADFRVMADMSMY [P29, ADFRVMADMSMY] | significantly increased |  |  | 
 | TFLNSVPTYSYW (A TIM3-targeting binding peptide) [P1310, 12-peptide targeting TIM3] | significantly increased |  |  | 
 | QNPPLENTVYQEPFWQHAVD (A TIM3-targeting binding peptide) [K7, 20-peptide targeting TIM3] | significantly increased |  |  | 
 | HYEADPYEAWYDAWDDIHTY (A TIM3-targeting binding peptide) [K1, 20-peptide targeting TIM3] | significantly increased |  |  | 
4.28×10^−3 S^−1 | HDAFPRPHLFRN [P1301, HDAFPRPHLFRN] | significantly increased |  |  | 
3.08×10^−3 S^−1 | ALWPSSSMSSTI [P1303, ALWPSSSMSSTI] | significantly increased |  |  | 
1.03×10^−2 S^−1 | FTYAHPVSHRWESSVHVDQW [K2] | significantly increased |  |  | 
1.69×10^−5 S^−1 | GSWNTFRAQPTI [P24, GSWNTFRAQPTI] |  |  |  | 
 | GLIPLTTMHIGK (A TIM3-targeting binding peptide) [P26, 12-peptide targeting TIM3] | significantly increased | reversed | tended to decrease | inhibited
7.89×10^−3 S^−1 | SHDTRSPFTWGR [P1307, SHDTRSPFTWGR] |  |  |  | 
